Read-outs that look alike come from different tables or passages of the source. Where no end group is shown, it is not given here.
Columns and labels:
Assay type in all cases: cell-based
NMUR1 WT = biological target: T1, NMUR1 WT (Homo sapiens, UniProt Q9HB89); test: IP-One assay, NMUR1 WT
T1 construct: The full-length human NMUR1 and NMUR2 were modified; expressed in transfected cells; host or cells: AD293 cells
Experimental: (§1) IP-One production was measured using the IP-One HTRF kit (Cisbio)[62]. Briefly, AD293 cells (Agilent) were grown to a density of 400,000–500,000 cells per mL and then infected with separate plasmids at a suitable concentration. The culture was collected by centrifugation 24 h after incubation at 37 °C in 5% CO2 with a Stimulation Buffer. The cell suspension was then dispensed in a white 384-well plate at a volume of 7 μl per well before adding 7 μl of ligands. The mixture was incubated for 1 h at 37 °C. IP-One-d2 and anti-IP-One Cryptate dissolved in Lysis Buffer (3 μl each) were subsequently added and incubated for 15-30 min at room temperature before measurement. Intracellular IP-One measurement was carried with the IP-One HTRF kit and EnVision multi-plate reader (PerkinElmer) according to the manufacturer’s instructions. Data were normalized to the baseline response of the ligand.
(§2) The significance was determined with two-side, one-way ANOVA with Tukey’s test, and ^*P < 0.05 was considered statistically significant.

NMUR1 L59A = biological target: T2, NMUR1 L59A (Homo sapiens, UniProt Q9HB89, L59A); test: IP-One assay, NMUR1 L59A; conditions: mean ± S.E.M., three independent experiments (n=3), SEM, read-out: IP1 accumulation pEC50 ± S.E.M. (converted)
T2 construct: The full-length human NMUR1 and NMUR2 were modified; expressed in transfected cells; host or cells: AD293 cells
Experimental: as §1, §2

NMUR1 E117A = biological target: T3, NMUR1 E117A (Homo sapiens, UniProt Q9HB89, E117A); test: IP-One assay, NMUR1 E117A; conditions: mean ± S.E.M., three independent experiments (n=3), SEM, read-out: IP1 accumulation pEC50 ± S.E.M. (converted)
T3 construct: The full-length human NMUR1 and NMUR2 were modified; expressed in transfected cells; host or cells: AD293 cells
Experimental: as §1, §2

NMUR1 E120A = biological target: T4, NMUR1 E120A (Homo sapiens, UniProt Q9HB89, E120A); test: IP-One assay, NMUR1 E120A; conditions: mean ± S.E.M., three independent experiments (n=3), SEM, read-out: IP1 accumulation pEC50 ± S.E.M. (converted)
T4 construct: The full-length human NMUR1 and NMUR2 were modified; expressed in transfected cells; host or cells: AD293 cells
Experimental: as §1, §2

NMUR1 M121A = biological target: T5, NMUR1 M121A (Homo sapiens, UniProt Q9HB89, M121A); test: IP-One assay, NMUR1 M121A; conditions: mean ± S.E.M., three independent experiments (n=3), SEM, read-out: IP1 accumulation pEC50 ± S.E.M. (converted)
T5 construct: The full-length human NMUR1 and NMUR2 were modified; expressed in transfected cells; host or cells: AD293 cells
Experimental: as §1, §2

NMUR1 N124A = biological target: T6, NMUR1 N124A (Homo sapiens, UniProt Q9HB89, N124A); test: IP-One assay, NMUR1 N124A; conditions: mean ± S.E.M., three independent experiments (n=3), SEM, read-out: IP1 accumulation pEC50 ± S.E.M. (converted)
T6 construct: The full-length human NMUR1 and NMUR2 were modified; expressed in transfected cells; host or cells: AD293 cells
Experimental: as §1, §2

NMUR1 Y125A = biological target: T7, NMUR1 Y125A (Homo sapiens, UniProt Q9HB89, Y125A); test: IP-One assay, NMUR1 Y125A; conditions: mean ± S.E.M., three independent experiments (n=3), SEM, read-out: IP1 accumulation pEC50 ± S.E.M. (converted)
T7 construct: The full-length human NMUR1 and NMUR2 were modified; expressed in transfected cells; host or cells: AD293 cells
Experimental: as §1, §2

NMUR1 F141A = biological target: T8, NMUR1 F141A (Homo sapiens, UniProt Q9HB89, F141A); test: IP-One assay, NMUR1 F141A; conditions: mean ± S.E.M., three independent experiments (n=3), SEM, read-out: IP1 accumulation pEC50 ± S.E.M. (converted)
T8 construct: The full-length human NMUR1 and NMUR2 were modified; expressed in transfected cells; host or cells: AD293 cells
Experimental: as §1, §2

NMUR1 E142A = biological target: T9, NMUR1 E142A (Homo sapiens, UniProt Q9HB89, E142A); test: IP-One assay, NMUR1 E142A; conditions: mean ± S.E.M., three independent experiments (n=3), SEM, read-out: IP1 accumulation pEC50 ± S.E.M. (converted)
T9 construct: The full-length human NMUR1 and NMUR2 were modified; expressed in transfected cells; host or cells: AD293 cells
Experimental: as §1, §2

NMUR1 H200A = biological target: T10, NMUR1 H200A (Homo sapiens, UniProt Q9HB89, H200A); test: IP-One assay, NMUR1 H200A; conditions: mean ± S.E.M., three independent experiments (n=3), SEM, read-out: IP1 accumulation pEC50 ± S.E.M. (converted)
T10 construct: The full-length human NMUR1 and NMUR2 were modified; expressed in transfected cells; host or cells: AD293 cells
Experimental: as §1, §2

NMUR1 F313A = biological target: T11, NMUR1 F313A (Homo sapiens, UniProt Q9HB89, F313A); test: IP-One assay, NMUR1 F313A; conditions: mean ± S.E.M., three independent experiments (n=3), SEM, read-out: IP1 accumulation pEC50 ± S.E.M. (converted)
T11 construct: The full-length human NMUR1 and NMUR2 were modified; expressed in transfected cells; host or cells: AD293 cells
Experimental: as §1, §2

NMUR1 D316A = biological target: T12, NMUR1 D316A (Homo sapiens, UniProt Q9HB89, D316A); test: IP-One assay, NMUR1 D316A; conditions: mean ± S.E.M., three independent experiments (n=3), SEM, read-out: IP1 accumulation pEC50 ± S.E.M. (converted)
T12 construct: The full-length human NMUR1 and NMUR2 were modified; expressed in transfected cells; host or cells: AD293 cells
Experimental: as §1, §2

NMUR1 W320A = biological target: T13, NMUR1 W320A (Homo sapiens, UniProt Q9HB89, W320A); test: IP-One assay, NMUR1 W320A; conditions: mean ± S.E.M., three independent experiments (n=3), SEM, read-out: IP1 accumulation pEC50 ± S.E.M. (converted)
T13 construct: The full-length human NMUR1 and NMUR2 were modified; expressed in transfected cells; host or cells: AD293 cells
Experimental: as §1, §2

NMUR1 H331A = biological target: T14, NMUR1 H331A (Homo sapiens, UniProt Q9HB89, H331A); test: IP-One assay, NMUR1 H331A; conditions: mean ± S.E.M., three independent experiments (n=3), SEM, read-out: IP1 accumulation pEC50 ± S.E.M. (converted)
T14 construct: The full-length human NMUR1 and NMUR2 were modified; expressed in transfected cells; host or cells: AD293 cells
Experimental: as §1, §2

NMUR1 F334A = biological target: T15, NMUR1 F334A (Homo sapiens, UniProt Q9HB89, F334A); test: IP-One assay, NMUR1 F334A; conditions: mean ± S.E.M., three independent experiments (n=3), SEM, read-out: IP1 accumulation pEC50 ± S.E.M. (converted)
T15 construct: The full-length human NMUR1 and NMUR2 were modified; expressed in transfected cells; host or cells: AD293 cells
Experimental: as §1, §2

NMUR1 Q335A = biological target: T16, NMUR1 Q335A (Homo sapiens, UniProt Q9HB89, Q335A); test: IP-One assay, NMUR1 Q335A; conditions: mean ± S.E.M., three independent experiments (n=3), SEM, read-out: IP1 accumulation pEC50 ± S.E.M. (converted)
T16 construct: The full-length human NMUR1 and NMUR2 were modified; expressed in transfected cells; host or cells: AD293 cells
Experimental: as §1, §2

NMUR1 H338A = biological target: T17, NMUR1 H338A (Homo sapiens, UniProt Q9HB89, H338A); test: IP-One assay, NMUR1 H338A; conditions: mean ± S.E.M., three independent experiments (n=3), SEM, read-out: IP1 accumulation pEC50 ± S.E.M. (converted)
T17 construct: The full-length human NMUR1 and NMUR2 were modified; expressed in transfected cells; host or cells: AD293 cells
Experimental: as §1, §2

NMUR1 V339A = biological target: T18, NMUR1 V339A (Homo sapiens, UniProt Q9HB89, V339A); test: IP-One assay, NMUR1 V339A; conditions: mean ± S.E.M., three independent experiments (n=3), SEM, read-out: IP1 accumulation pEC50 ± S.E.M. (converted)
T18 construct: The full-length human NMUR1 and NMUR2 were modified; expressed in transfected cells; host or cells: AD293 cells
Experimental: as §1, §2

NMUR1 F345A = biological target: T19, NMUR1 F345A (Homo sapiens, UniProt Q9HB89, F345A); test: IP-One assay, NMUR1 F345A; conditions: mean ± S.E.M., three independent experiments (n=3), SEM, read-out: IP1 accumulation pEC50 ± S.E.M. (converted)
T19 construct: The full-length human NMUR1 and NMUR2 were modified; expressed in transfected cells; host or cells: AD293 cells
Experimental: as §1, §2

NMUR1 Y346A = biological target: T20, NMUR1 Y346A (Homo sapiens, UniProt Q9HB89, Y346A); test: IP-One assay, NMUR1 Y346A; conditions: mean ± S.E.M., three independent experiments (n=3), SEM, read-out: IP1 accumulation pEC50 ± S.E.M. (converted)
T20 construct: The full-length human NMUR1 and NMUR2 were modified; expressed in transfected cells; host or cells: AD293 cells
Experimental: as §1, §2

NMUR2 WT = biological target: T21, NMUR2 WT (Homo sapiens, UniProt Q9GZQ4); test: IP-One assay, NMUR2 WT
T21 construct: The full-length human NMUR1 and NMUR2 were modified; expressed in transfected cells; host or cells: AD293 cells
Experimental: as §1, §2

NMUR2 F44A = biological target: T22, NMUR2 F44A (Homo sapiens, UniProt Q9GZQ4, F44A); test: IP-One assay, NMUR2 F44A; conditions: mean ± S.E.M., three independent experiments (n=3), SEM, read-out: IP1 accumulation pEC50 ± S.E.M. (converted)
T22 construct: The full-length human NMUR1 and NMUR2 were modified; expressed in transfected cells; host or cells: AD293 cells
Experimental: as §1, §2

NMUR2 Y52A = biological target: T23, NMUR2 Y52A (Homo sapiens, UniProt Q9GZQ4, Y52A); test: IP-One assay, NMUR2 Y52A; conditions: mean ± S.E.M., three independent experiments (n=3), SEM, read-out: IP1 accumulation pEC50 ± S.E.M. (converted)
T23 construct: expressed in transfected cells; host or cells: AD293 cells
Experimental: as §1, §2

T21 sequence (Q9GZQ4 whole entry): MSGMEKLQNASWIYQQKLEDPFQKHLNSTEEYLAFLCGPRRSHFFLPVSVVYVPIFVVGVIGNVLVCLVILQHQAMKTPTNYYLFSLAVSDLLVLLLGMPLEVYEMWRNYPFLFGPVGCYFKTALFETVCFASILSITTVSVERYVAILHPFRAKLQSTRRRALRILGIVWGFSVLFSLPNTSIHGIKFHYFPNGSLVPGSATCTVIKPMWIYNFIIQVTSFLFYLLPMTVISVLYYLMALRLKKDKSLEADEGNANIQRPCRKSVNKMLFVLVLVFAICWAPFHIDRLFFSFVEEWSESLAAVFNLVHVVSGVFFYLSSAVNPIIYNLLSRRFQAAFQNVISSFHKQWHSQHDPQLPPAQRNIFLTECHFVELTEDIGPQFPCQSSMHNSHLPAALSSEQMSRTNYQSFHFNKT
T1 sequence (Q9HB89 whole entry): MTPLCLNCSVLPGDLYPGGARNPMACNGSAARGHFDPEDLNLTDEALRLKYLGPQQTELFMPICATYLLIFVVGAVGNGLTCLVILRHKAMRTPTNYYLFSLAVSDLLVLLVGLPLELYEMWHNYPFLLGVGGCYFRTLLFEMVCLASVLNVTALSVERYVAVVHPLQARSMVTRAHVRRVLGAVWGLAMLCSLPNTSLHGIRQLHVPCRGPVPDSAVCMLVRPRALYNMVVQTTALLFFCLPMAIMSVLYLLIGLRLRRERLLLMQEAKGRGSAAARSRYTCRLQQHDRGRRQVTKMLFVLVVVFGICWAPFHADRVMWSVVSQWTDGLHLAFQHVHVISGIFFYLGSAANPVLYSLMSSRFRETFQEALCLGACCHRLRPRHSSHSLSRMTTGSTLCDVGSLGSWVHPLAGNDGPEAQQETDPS
T22 sequence (Q9GZQ4 whole entry F44A): as the sequence (Q9GZQ4 whole entry) above, with F44A counted along it
T9 sequence (Q9HB89 whole entry E142A): as the sequence (Q9HB89 whole entry) above, with E142A counted along it
T17 sequence (Q9HB89 whole entry H338A): as the sequence (Q9HB89 whole entry) above, with H338A counted along it
T15 sequence (Q9HB89 whole entry F334A): as the sequence (Q9HB89 whole entry) above, with F334A counted along it
T20 sequence (Q9HB89 whole entry Y346A): as the sequence (Q9HB89 whole entry) above, with Y346A counted along it
T3 sequence (Q9HB89 whole entry E117A): as the sequence (Q9HB89 whole entry) above, with E117A counted along it
T8 sequence (Q9HB89 whole entry F141A): as the sequence (Q9HB89 whole entry) above, with F141A counted along it
T23 sequence (Q9GZQ4 whole entry Y52A): as the sequence (Q9GZQ4 whole entry) above, with Y52A counted along it
T7 sequence (Q9HB89 whole entry Y125A): as the sequence (Q9HB89 whole entry) above, with Y125A counted along it
T16 sequence (Q9HB89 whole entry Q335A): as the sequence (Q9HB89 whole entry) above, with Q335A counted along it
T12 sequence (Q9HB89 whole entry D316A): as the sequence (Q9HB89 whole entry) above, with D316A counted along it
T2 sequence (Q9HB89 whole entry L59A): as the sequence (Q9HB89 whole entry) above, with L59A counted along it
T18 sequence (Q9HB89 whole entry V339A): as the sequence (Q9HB89 whole entry) above, with V339A counted along it
T19 sequence (Q9HB89 whole entry F345A): as the sequence (Q9HB89 whole entry) above, with F345A counted along it
T10 sequence (Q9HB89 whole entry H200A): as the sequence (Q9HB89 whole entry) above, with H200A counted along it
T11 sequence (Q9HB89 whole entry F313A): as the sequence (Q9HB89 whole entry) above, with F313A counted along it
T14 sequence (Q9HB89 whole entry H331A): as the sequence (Q9HB89 whole entry) above, with H331A counted along it
T13 sequence (Q9HB89 whole entry W320A): as the sequence (Q9HB89 whole entry) above, with W320A counted along it
T5 sequence (Q9HB89 whole entry M121A): as the sequence (Q9HB89 whole entry) above, with M121A counted along it
T6 sequence (Q9HB89 whole entry N124A): as the sequence (Q9HB89 whole entry) above, with N124A counted along it
T4 sequence (Q9HB89 whole entry E120A): as the sequence (Q9HB89 whole entry) above, with E120A counted along it

## FRVDEEFQSPFASQSRGYFLFRPRN-NH2 [NMU, neuromedin U]
NMUR1 WT; NMUR1 WT, mean ± S.E.M., three independent experiments (n=3), SEM, read-out: IP1 accumulation pEC50 ± S.E.M. (converted)
  EC50: 3.55 nM
NMUR1 WT; wild-type (WT) NMUR1, Supplementary Fig. 1, three independent experiments, read-out: pEC50 of NMU (converted)
  EC50: 4.47 nM
NMUR1 L59A
  EC50: 110 nM
NMUR1 E117A
  EC50: 1070 nM
NMUR1 E120A
  EC50: 10.7 nM
NMUR1 M121A
  EC50: 51.3 nM
NMUR1 N124A
  EC50: 6.92 nM
NMUR1 Y125A
  EC50: 20 nM
NMUR1 F141A
  EC50: 115 nM
NMUR1 E142A
  EC50: 47.9 nM
NMUR1 H200A
  EC50: 41.7 nM
NMUR1 F313A
  EC50: 209 nM
NMUR1 D316A
  EC50: 10.5 nM
NMUR1 W320A
  EC50: 2880 nM
NMUR1 H331A
  EC50: 11.5 nM
NMUR1 F334A
  EC50: 85.1 nM
NMUR1 Q335A
  EC50: 18.2 nM
NMUR1 H338A
  EC50: 29.5 nM
NMUR1 V339A
  EC50: 11.5 nM
NMUR1 F345A
  EC50: 1480 nM
NMUR1 Y346A
  EC50: 155 nM
NMUR2 WT; NMUR2 WT, mean ± S.E.M., three independent experiments (n=3), SEM, read-out: IP1 accumulation pEC50 ± S.E.M. (converted)
  EC50: 0.631 nM
NMUR2 WT; WT NMUR2, Supplementary Fig. 1, three independent experiments, read-out: pEC50 of NMU (converted)
  EC50: 3.02 nM
NMUR2 F44A
  EC50: 102 nM
NMUR2 Y52A
  EC50: 1 nM

Source: publication PMC9019041, “Structural insights into the peptide selectivity and activation of human neuromedin U receptors” (Nature Communications, 2022)
